From patent US20230332232A1, “COMPOSITIONS AND METHODS FOR DIAGNOSING AND TREATING A DYSTONIA” (Duke University, priority 2020, published 2023)

System: DYT1 knockin (Tor1a^delGAG/+) murine embryonic fibroblasts (MEFs)
Experiment: Untargeted LC/MS/MS proteomics of EVs from DYT1 MEFs exposed 24 hours to drug, compared with untreated DYT1 (Het) MEFs
Format: cell-based, mouse
Description: Methods for isolation and purification of exosomes and extracellular vesicles (EV) were extensively reviewed. Experiments were performed to arrive at a robust and reproducible protocol. The protocol used herein is that set forth in Théry et al, 2006, which is incorporated by reference for it teaching of this protocol. This protocol involves depleting serum-derived EVs from cell culture media by overnight ultracentrifugation and exchanging media for 1% FBS EV-depleted media. Media is then collected from cells following a 24-hour conditioning period and EVs are isolated by 18-hour ultracentrifugation at 100,000 g (FIG. 1A).
EVs were isolated from media of cultured murine embryonic fibroblasts (MEFs) prepared in-house according to protocols described by Xu 2005 from DYT1 knockin mice (Tor1a^delGAG/+) (Goodchild R E, et al. (2005) Neuron. 48:923-932) and littermate wild-type (WT) controls. The cultured MEFs from the DYT1 mice were exposed for 24 hours to Ritonavir (RTV) while the MEFs from WT mice were exposed to vehicle, ISRIB, or Salubrinal (SAL). The EVs isolated from these WT cells and DYT1 were characterized by untargeted proteomics and RNA-seq to identify differentially expressed proteins and RNAs as candidate biomarkers. Experimenter and Proteomics core staff were blinded to genotype of cell cultures throughout preparation and analysis phases.
Samples were first normalized to 20 μg and spiked with undigested casein at a total of 40 fmol/μg, 80 fmol/μg, or 160 fmol/μg, then reduced with 10 mM dithiolthreitol for 30 minute at 80° C. and alkylated with 20 mM iodoacetamide for 30 minutes at room temperature. Next, the samples were supplemented with a final concentration of 1.2% phosphoric acid and 741 μL of S-Trap (Protifi) binding buffer (90% MeOH/100 mM […]). Proteins were trapped on the S-Trap, digested using 20 ng/μL sequencing grade trypsin (Promega) for 1 hour at 47° C., and eluted using 50 mM TEAB, followed by 0.2% FA, and lastly using 50% CAN/0.2% FA. All samples were then lyophilized to dryness and resuspended in 40 μL 1% TFA/2% acetonitrile containing 12.5 fmol/μL yeast alcohol dehydrogenase (ADH_YEAST). A QC Pool was created from 3 uL of each sample. All QC Pools were run periodically throughout the acquisition period.
Quantitative LC/MS/MS was performed on 2 μL of each sample, using a nanoAcquity UPLC system (Waters Corp) coupled to a Thermo Orbitrap Fusion Lumos high resolution accurate mass tandem mass spectrometer (Thermo) via a nanoelectrospray ionization source. Briefly, the sample was first trapped on a Symmetry C18 20 mm×180 μm trapping column (5 μL/min at 99.9/0.1 v/v water/acetonitrile), after which the analytical separation was performed using a 1.8 μm Acquity HSS T3 C18 75 μm×250 mm column (Waters Corp.) with a 90 minute linear gradient of 5% to 30% acetonitrile with 0.1% formic acid at a flow rate of 400 nanoliters/minute (nL/min) with a column temperature of 55° C. Data collection on the Fusion Lumos mass spectrometer was performed in a data-dependent acquisition (DDA) mode of acquisition with a r=120,000 (@ m/z 200) full MS scan from m/z 375-1500 with a target AGC value of 2e5 ions. MS/MS scans were acquired at Rapid scan rate (Ion Trap) with an AGC target of 5e3 ions and a max injection time of 100 ms. The total cycle time for MS and MS/MS scans was 2 seconds. A 20 second dynamic exclusion was employed to increase depth of coverage. The total analysis cycle time for each sample injection was approximately 2 hours.

CC(C)c1nc(CN(C)C(=O)N[C@H](C(=O)N[C@@H](Cc2ccccc2)C[C@H](O)[C@H](Cc2ccccc2)NC(=O)OCc2cncs2)C(C)C)cs1 [RTV, Ritonavir]
8.62: Abs Z Score Sum (Geno + RTV) (EV protein Ube2n P61089)
6.63: Abs Z Score Sum (Geno + RTV) (EV protein Tra2b (P62996))
5.72: Abs Z Score Sum (Geno + RTV) (EV protein Srsf7 Q8BL97)
12.21: Abs Z Score Sum (Geno + RTV) (EV protein Ssbp1 (Q9CYR0))
6.02: Abs Z Score Sum (Geno + RTV) (EV protein Sptan1 (P16546))
yes: RTV Direction Opposite dE? (EV protein Ssb (P32067)) | RTV Direction Opposite dE? (EV protein Ssbp1 (Q9CYR0)) | RTV Direction Opposite dE? (EV protein Svep1 (A2A0A0)) | RTV Direction Opposite dE? (EV protein Tra2b (P62996)) | RTV Direction Opposite dE? (EV protein Vapa (Q9WV55)) | Direction Opposite dE? (EV protein: 26S proteasome non-ATPase regulatory subunit 8) | Direction Opposite dE? (EV protein: 60S [?] subunit biogenesis protein [?] homolog) | Direction Opposite dE? (EV protein: 60S ribosomal protein [?]) | Direction Opposite dE? (EV protein: 116 kDa [?] small nuclear ribonucleoprotein component) | Direction Opposite dE? (EV protein: AP-3 complex subunit [?]) | Direction Opposite dE? (EV protein: ATP-dependent RNA helicase [?]) | Direction Opposite dE? (EV protein: Acyl-protein thioesterase 2) | Direction Opposite dE? (EV protein: Alpha-crystallin B chain) | Direction Opposite dE? (EV protein: Anaphase-promoting complex subunit 2) | Direction Opposite dE? (EV protein: Anaphase-promoting complex subunit 4) | Direction Opposite dE? (EV protein: Anaphase-promoting complex subunit 5) | Direction Opposite dE? (EV protein: Calponin-3) | Direction Opposite dE? (EV protein: Cell [?] cycle protein [?] homolog) | Direction Opposite dE? (EV protein: Cell division cycle protein 27 homolog) | Direction Opposite dE? (EV protein: Choline transporter-like protein 1) | Direction Opposite dE? (EV protein: Coiled-coil domain-containing protein 22) | Direction Opposite dE? (EV protein: Complement C1q [?] -related protein 3) | Direction Opposite dE? (EV protein: Cullin-2) | Direction Opposite dE? (EV protein: Cullin-5) | Direction Opposite dE? (EV protein: Cullin-7) | Direction Opposite dE? (EV protein: Cytosolic purine [?] -nucleotidase) | Direction Opposite dE? (EV protein: DNA [?] (r264)) | Direction Opposite dE? (EV protein: DNA [?] licensing factor MCM4) | Direction Opposite dE? (EV protein: DNA ligase 1) | Direction Opposite dE? (EV protein: DNA replication licensing factor MCM5) | Direction Opposite dE? (EV protein: DNA replication licensing factor [?]) | Direction Opposite dE? (EV protein: DNA-directed RNA polymerase II subunit RPB1) | Direction Opposite dE? (EV protein: DNA-directed RNA polymerase II subunit RPB2) | Direction Opposite dE? (EV protein: DNA-directed RNA polymerase II subunit RPB3) | Direction Opposite dE? (EV protein: DNA-directed RNA polymerase [?] subunit RPA2) | Direction Opposite dE? (EV protein: DNA-directed RNA polymerases I, II, and III subunit RPABC3) | Direction Opposite dE? (EV protein: DNA-directed RNA polymerases I, II, and III subunit [?]) | Direction Opposite dE? (EV protein: Developmentally-regulated GTP-binding protein 2) | Direction Opposite dE? (EV protein: Double-strand-break repair protein rad21 homolog) | Direction Opposite dE? (EV protein: Dual specificity mitogen-activated protein kinase kinase 4) | Direction Opposite dE? (EV protein: Dynactin subunit 4) | Direction Opposite dE? (EV protein: E3 ubiquitin-protein ligase [?]) | Direction Opposite dE? (EV protein: Elongin-B) | Direction Opposite dE? (EV protein: Extended synaptotagmin-1) | Direction Opposite dE? (EV protein: Gamma-tubulin complex component 2) | Direction Opposite dE? (EV protein: General vesicular transport factor p115) | Direction Opposite dE? (EV protein: Glucose-6-phosphate 1-dehydrogenase [?]) | Direction Opposite dE? (EV protein: Glutathione S-transferase omega-1) | Direction Opposite dE? (EV protein: Glycosylated lysosomal membrane protein) | Direction Opposite dE? (EV protein: Golgi reassembly-stacking protein 2) | Direction Opposite dE? (EV protein: Heterogeneous nuclear ribonucleoprotein H) | Direction Opposite dE? (EV protein: Histone-arginine methyltransterase CARM1) | Direction Opposite dE? (EV protein: Immunity-related GTPase family M protein 1) | Direction Opposite dE? (EV protein: Importin-7) | Direction Opposite dE? (EV protein: Inositol monophosphate 1) | Direction Opposite dE? (EV protein: Insulin-like growth factor 1 receptor) | Direction Opposite dE? (EV protein: Integrin beta- 3) | Direction Opposite dE? (EV protein: Lupus [?] protein homolog) | Direction Opposite dE? (EV protein: Lysine-specific histone demethylase [?]) | Direction Opposite dE? (EV protein: Mediator [?] RNA polymerase II transcription subunit 23) | Direction Opposite dE? (EV protein: Metastasis-associated protein [?] (r222)) | Direction Opposite dE? (EV protein: Metastasis-associated protein [?] (r261)) | Direction Opposite dE? (EV protein: Microtubule-associated protein [?]) | Direction Opposite dE? (EV protein: N-alpha-acetyltransferase 10) | Direction Opposite dE? (EV protein: Nerine arginine-rich splicing factor [?]) | Direction Opposite dE? (EV protein: Nuclear [?] complex protein [?]) | Direction Opposite dE? (EV protein: Nuclear cap-binding protein subunit 1) | Direction Opposite dE? (EV protein: Nuclear receptor-binding protein) | Direction Opposite dE? (EV protein: NudC domain-containing protein 1) | Direction Opposite dE? (EV protein: Phospholipase D3) | Direction Opposite dE? (EV protein: Phosphoribosyl pyrophosphate synthase-associated protein 1) | Direction Opposite dE? (EV protein: Probable ubiquitin carboxyl-terminal hydrolase [?]) | Direction Opposite dE? (EV protein: Proenkephalin-A) | Direction Opposite dE? (EV protein: Protein O-GlcNAcase) | Direction Opposite dE? (EV protein: Protein RMD5 homolog A) | Direction Opposite dE? (EV protein: Protein [?] 14 homolog) | Direction Opposite dE? (EV protein: Protein [?] (r160)) | Direction Opposite dE? (EV protein: Protein disulfide-isomerase A4) | Direction Opposite dE? (EV protein: RNA-binding protein [?]) | Direction Opposite dE? (EV protein: Ran-binding protein 10) | Direction Opposite dE? (EV protein: Ras-related protein Rab-6A) | Direction Opposite dE? (EV protein: Ribosome biogenesis protein BOP1) | Direction Opposite dE? (EV protein: Ribosome production factor 2 homolog) | Direction Opposite dE? (EV protein: Serine threonine-protein phosphatase 2A 56 kDa regulatory subunit gamma isoform) | Direction Opposite dE? (EV protein: Sorting nexin-1) | Direction Opposite dE? (EV protein: Splicing factor 3B subunit 4) | Direction Opposite dE? (EV protein: Structural maintenance of [?] protein 2) | Direction Opposite dE? (EV protein: Transformer-2 protein homolog beta) | Direction Opposite dE? (EV protein: Trascriptional activator protein [?] -alpha) | Direction Opposite dE? (EV protein: Ubiquitin-conjugating enzyme [?]) | Direction Opposite dE? (EV protein: WD repeat-containing protein [?]) | Direction Opposite dE? (EV protein: [?] (r162)) | Direction Opposite dE? (EV protein: [?] -1 (r154)) | Direction Opposite dE? (EV protein: [?] -1 (r232)) | Direction Opposite dE? (EV protein: [?] -associated membrane protein-associated protein A) | Direction Opposite dE? (EV protein: [?] -promoting complex subunit 1) | Direction Opposite dE? (EV protein: [?] -related [?] -associated actin-dependent regulator [?] chromatin subfamily A member 5) | Direction Opposite dE? (EV protein: [?] complex subunit 2) | Direction Opposite dE? (EV protein: [?] kinase) | Direction Opposite dE? (EV protein: [?] membrane protein 2) | Direction Opposite dE? (EV protein: [?] myosin- [?]) | Direction Opposite dE? (EV protein: [?] repeat-containing protein 5A) | Direction Opposite dE? (EV protein: [?] ubiquitin-protein ligase [?]) | Direction Opposite dE? (EV protein: [?] von Willebrand factor type A, [?] and pentraxin domain-containing protein 1) | Direction Opposite dE? (EV protein: p21-activated protein kinase-interacting protein 1)
6.23: Abs Z Score Sum (Geno + RTV) (EV protein Spthn1 Q62261)
9.50: Abs Z Score Sum (Geno + RTV) (EV protein Tars (Q9D0R2))
8.93: Abs Z Score Sum (Geno + RTV) (EV protein Vapa (Q9WV55))
12.14: Abs Z Score Sum (Geno + RTV) (EV protein Usol Q9Z1Z0)
5.45: Abs Z Score Sum (Geno + RTV) (EV protein Ssb (P32067))
9.02: Abs Z Score Sum (Geno + RTV) (EV protein Upf1 (Q9..))
